Values quoted from earlier work as cited in patent publication US6150513A, “Polyketide synthase enzymes and recombinant DNA constructs therefor” (Kosan Biosciences, Inc., priority 1998, dated 2000).
Where two headings read alike, the source gives them in different places.

Key:
[1] = system: splenocyte proliferation; details: Luengo et al., 1995
[2] = system: FKBP
[3] = system: sensory neurons; details: compared with FK-506, FK-520 and rapamycin; Steiner et al., 1997
[4] = system: nigral-striatal dopamine neurons; details: administration of FKBP ligand

COC(=O)N[C@H]1C[C@@H]2CC[C@@H](C)[C@@](O)(O2)C(=O)C(=O)N2CCCC[C@H]2C(=O)O[C@H]([C@H](C)C[C@@H]2CC[C@@H](O)[C@H](OC)C2)CC(=O)[C@H](C)/C=C(\C)[C@@H](O)[C@@H](OC)C(=O)[C@H](C)C[C@H](C)/C=C/C=C/C=C/1C [compound 1]
activity in the splenocyte proliferation assay [1]: complete loss of activity | reduction in binding to FKBP ([2]; relative to rapamycin, Luengo et al., 1995): 10 fold

CC1(C)COC(=O)CCCCCCOc2cccc(c2)[C@@H](CCc2ccccc2)OC(=O)[C@@H]2CCCCN2C(=O)C1=O [compound 2]
binding to FKBP compared with FK-506 ([2]; in words): about as well as FK-506

CO[C@H]1C[C@@H]2CC[C@@H](C)[C@@](O)(O2)C(=O)C(=O)N2CCCC[C@H]2C(=O)O[C@H]([C@H](C)C[C@@H]2CC[C@@H](O)[C@H](OC)C2)CC(=O)[C@H](C)/C=C(\C)[C@@H](O)[C@@H](OC)C(=O)[C@H](C)C[C@H](C)C2C=CC(/C=C/1C)n1c(=O)n(-c3ccccc3)c(=O)n12 [WAY-124,466]
promoting neurite outgrowth in sensory neurons [3]: about as effective as FK-506, FK-520, and rapamycin | IC50 ([2]; see Ocain et al., 1993, target not given, context FKBP binding, read-out: IC50): 12.5 nM

COC1CC2CCC(C)C(O)(O2)C(=O)C(=O)N2CCCCC2C(=O)NC(CCc2ccccc2)C(=O)NCC(=O)N(C)CC(=O)OC1C (stereo not drawn) [compound 3]
binding to FKBP, poorer than FK-506 ([2]; relative to FK-506): about 20 fold

CC[C@@H]1/C=C(\C)C(O)[C@H](C)C[C@H](OC)[C@H]2O[C@@](O)(C(=O)C(=O)N3CCCC[C@H]3C(=O)O[C@H](/C(C)=C/[C@@H]3CC[C@@H](O)[C@H](OC)C3)[C@H](C)[C@@H](O)CC1=O)[C@H](C)C[C@@H]2OC (stereo partly drawn) [L-685,818]
promoting neurite outgrowth in sensory neurons [3]: about as effective as FK-506, FK-520, and rapamycin | IC50 ([2]; see Dumont et al., 1992, read-out: ED50 for FKBP binding): 0.7 nM

CCC(C)(C)C(=O)C(=O)N1CCC[C@H]1C(=O)OCCCc1cccnc1 [GPI-1046]
effect in primate MPTP model [4]: caused brain cells to regenerate and behavioral measures to improve
